Experimental data taken from patent publication US5208148A, “Lipophilic fluorescent glycosidase substrates” (Molecular Probes, Inc., priority 1990, dated 1993).
Entries after “also recorded” stand apart in the source; their conditions may differ. Counter-ions that a name gives are not always drawn. Like-named read-outs stand apart in the source and are kept apart here.

How the values were obtained:
β-galactosidase = molecular target: T1, β-galactosidase (Escherichia coli, UniProt P00722); test: In vitro kinetic assay of galactosidase substrates (absorbance increase at 490 nm); format: biochemical; conditions: in buffer, pH 7.0, room temperature; for Km: read-out: KM (Michaelis constant)
T1 construct: purchased Sigma Chemical Co., St. Louis, Mo
T1 sequence (P00722 2-1024): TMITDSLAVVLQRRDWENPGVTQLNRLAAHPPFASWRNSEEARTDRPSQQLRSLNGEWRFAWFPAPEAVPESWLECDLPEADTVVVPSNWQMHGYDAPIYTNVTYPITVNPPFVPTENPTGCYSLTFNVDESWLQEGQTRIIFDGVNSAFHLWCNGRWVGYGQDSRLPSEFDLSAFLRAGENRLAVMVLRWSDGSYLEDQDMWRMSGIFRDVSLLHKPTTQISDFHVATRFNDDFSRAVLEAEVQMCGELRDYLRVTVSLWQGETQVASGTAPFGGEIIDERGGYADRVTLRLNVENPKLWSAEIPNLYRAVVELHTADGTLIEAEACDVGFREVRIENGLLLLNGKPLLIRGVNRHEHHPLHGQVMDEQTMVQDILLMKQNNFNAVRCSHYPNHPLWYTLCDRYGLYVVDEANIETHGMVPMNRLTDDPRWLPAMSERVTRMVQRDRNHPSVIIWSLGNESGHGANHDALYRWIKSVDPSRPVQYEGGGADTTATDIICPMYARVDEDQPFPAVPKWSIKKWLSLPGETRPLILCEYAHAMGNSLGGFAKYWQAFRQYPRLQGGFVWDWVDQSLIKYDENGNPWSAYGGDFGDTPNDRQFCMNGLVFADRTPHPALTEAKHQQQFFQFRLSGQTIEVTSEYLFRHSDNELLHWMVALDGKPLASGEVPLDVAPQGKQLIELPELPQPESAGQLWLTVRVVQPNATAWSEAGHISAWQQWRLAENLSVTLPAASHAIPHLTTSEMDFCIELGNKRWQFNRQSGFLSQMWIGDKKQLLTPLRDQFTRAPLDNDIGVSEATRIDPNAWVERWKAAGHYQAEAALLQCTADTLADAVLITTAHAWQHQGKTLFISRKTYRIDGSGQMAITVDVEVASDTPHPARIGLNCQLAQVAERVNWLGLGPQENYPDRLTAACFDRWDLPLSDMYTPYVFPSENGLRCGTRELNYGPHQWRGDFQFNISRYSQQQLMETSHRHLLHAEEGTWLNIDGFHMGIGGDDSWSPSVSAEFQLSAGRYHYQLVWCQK
Source text: There are two parameters to describe the catalytic reaction of an enzyme on its substrate. The turnover rate k2, i.e. the substrate conversion rate by one unit of enzyme, can be expressed as μmol/(minute·mg). The Michaelis constant KM which gives the substrate binding ability to an enzyme (the smaller is KM, the higher is binding ability), can be expressed as μM. The relevant data for turnover of five lipophilic FDG substrates by β-galactosidase is detailed in Table 2.
The substrates have essentially no absorbance at 490 nm while their hydrolysis products from reaction with β-galactosidase have a strong absorbance at this wavelength. Using the extinction coefficients of the products, the substrate hydrolysis rate can be determined by the absorbance increase at 490 nm (Table 2).
13.8 g NaH2 PO4.H2 O, 0.2 g MgCl2.6H2 O and 7 mL liquid 2-mercaptoethanol are dissolved in 1 liter distilled water and adjusted to pH 7.0 using NaOH.
The glycosidase substrates are dissolved at 5 mg/mL in anhydrous DMSO.
β-Galactosidase (Sigma Chemical Co., St. Louis, Mo.) is dissolved at 1 mg/mL in water. This solution is stable for 24 hours at room temperature.
A series of substrate concentrations between 1 μM and 1 mM in 2.8 mL of the assay buffer is prepared and pipetted into a cuvette. 0.2 mL of a 1 mg/mL solution of β-galactosidase in water is added in the cuvette at room temperature to initiate the enzymatic reaction and the absorbance increase at 490 nm is immediately recorded in the spectrophotometer equipped with a chart recorder set at a speed of 10 mm/min. The enzyme reaction rate is calculated using an appropriate product extinction coefficient. Double reciprocal plotting of reaction rate and substrate concentration will yield the turnover rate and Michaelis constant (Stryer, BIOCHEMISTRY p. 189 (W. H. Freeman & Co., N.Y. 1988)).

cells = test: Cytotoxicity of the labeling reagent for cultured cells; format: cell-based; conditions: for toxicity effects on labelled cells: concentration up to 100 mM
NIH3T3 (lacZ-) cells = test: Labeling of lacZ- control cells with fluorogenic substrate, fluorescence microscopy; format: cell-based, mouse; conditions: 60 μM, after 1 hr. incubation
Procedure: (§1) CRE BAG 2 (lacZ+) cells were used to test the effectiveness of the substrate in labeling lacZ+ cells. NIH3T3 (lacZ-) cells were used as a control. Both cell lines were obtained from American Type Culture Collection Co., Rockville, Md. The cells were grown in a humidified atmosphere of 5% CO2 in Dulbecco's modified Eagle's medium (DMEM) supplemented with 10% calf serum, 50 μg/ml gentamycin, 300 μg/ml L-glutamine and 10 mM HEPES pH 7.4 (culture medium).
(§2) to 1.0 mg of 5-fattyacylaminofluorescein di-β-galactopyranoside substrate (C12 FDG) was added 0.1193 ml of 20% DMSO to get 10 mM stock solution. Stock solutions were kept sealed in the brown bottle and stored at 4° C.
(§3) […] Labeling culture medium was filter-sterilized by passing through an ACRODISC™ filter (0.20 μm pore size).
Cells were washed with fresh (non-labeling) culture medium before examination. Cells were observed using a microscope equipped with a fluorescein filter. […] After 6 hrs., the fluorescence intensity in CRE BAG 2 cells reached its highest level.

CRE BAG 2 (lacZ+) cells = test: Labeling of lacZ+ cells with fluorogenic substrate, fluorescence microscopy; format: cell-based, mouse; conditions: 60 μM
Source text: The photographs were taken under a Zeiss Axioplan Microscope equipped with FITC filter set using Fujichrome p1600 color reversal (slide) film. This film was then commercially developed. The black and white photographs were printed from color slides under the following conditions: 1)Internegative using Ilford Panf film, exposed for 1/60 sec. at f11;2) black and white prints on Kodak polycontrast III paper.
as §1, §2, §3
Cells were washed with fresh (non-labeling) culture medium before examination. […] After 6 hrs., the fluorescence intensity in CRE BAG 2 cells reached its highest level.

plant cell populations = conditions: cited from earlier work
[1] = system: GUS gene positive tobacco plant cells; test: Detection of GUS gene expression in transformed plant cells; format: cell-based; conditions: 100 μM, 4 h incubation, GUS+ versus control cells
Procedure: In our cellular assay, the tobacco plant with and without the GUS gene (CaMV35S-GUS, cauliflower mosaic virus 35S promoter with the coding region of GUS) were used. (Ref: Jefferson, R.A., EMBO J., 1987, 6, 3901-3907).
Sections of the stem of both plants were cultured on Murashige and Skoog basal medium with sucrose and agar inside of plant culture dish at 2000 lux, 18 h day, 26° C. The calli were collected from the dishes, cut to small pieces and transferred to liquid medium (in screw cap 50 ml Erlenmeyer flasks) to get cell suspension with shaking (120 rpm) at the culture room. Sterilized 1 mM FA910 solution (in water) was added to the cell suspension to final concentration of 100μM. After incubating cells in normal condition for 4 h, take 1 ml of suspension, spin down the cells. The cells were resuspended in 100 μl of fresh culture medium, placed onto glass slide, covered with a cover glass and sealed with wax.
Both the GUS+ and control tobacco cells were examined under a Zeiss microscope equipped with FITC filter set. Photographs were taken of both fluorescent and Nomaski images (Fujichrome P1600D, color reversal film, daylight).

lacZ+ cell = test: Examination of galactosidase activity of sorted cells with resorufin galactoside; format: cell-based; conditions: 0.5 mM, 0.1 M phosphate buffer, 0.1% Triton X-100
Procedure: The sorted cell is collected in a 96 well microtiter plate (Corning, N.Y.). The cell galactosidase activity is examined by means of the permeant fluorogenic substrate resorufin galactoside (Molecular Probes, Inc., Eugene, OR). To 20 μl cell sample in a microtiter well, is added 200 μl of a 0.5 mM resorufin galactoside solution in 0.1 M phosphate buffer containing 1 mM MgCl2 and 0.1% Triton X-100. After 1 hour incubation, the plate is read in a CYTOFLUOR™ fluorescence plate reader (Millipore, Bedford, Mass.) with excitation at 560 nm, emission at 645 nm, sensitivity=1. A fluorescence reading below 20 can be scored lacZ- cell and a reading higher than 60 can be scored lacZ+. The resorufin galactoside can detect the enzyme activity in a single lacZ^+ cell within 1 hour.

O=C1OC2(c3ccc(O[C@@H]4O[C@H](CO)[C@H](O)[C@H](O)[C@H]4O)cc3Oc3cc(O[C@@H]4O[C@H](CO)[C@H](O)[C@H](O)[C@H]4O)ccc32)c2ccccc21 [C0 FDG, fluorescein di-62-galactopyranoside, reference compound]
k2 (turnover rate) (β-galactosidase): 1.90 µmol/min/mg
Km (β-galactosidase): 18 µM

CCCCCCCCCCCC(=O)Nc1ccc2c(c1)C(=O)OC21c2ccc(O[C@@H]3O[C@H](CO)[C@H](O)[C@H](O)[C@H]3O)cc2Oc2cc(O[C@@H]3O[C@H](CO)[C@H](O)[C@H](O)[C@H]3O)ccc21 [C12 FDG, 5-DODECANOYLAMINOFLUORESCEIN DI-β-D-GALACTOPYRANOSIDE]
population doubling time compared with control (cells; 60 μM labeling medium): same population doubling time as the control
population doubling time compared with control (cells; 0.2 mM in the culture medium): same population doubling time as the control
toxicity effects on labelled cells (cells): no detectible toxicity effects
morphology and viability of cells (cells; grown in 0.2 mM for 10 days): normal morphology and remained viable; also recorded: normal in morphology and appearance
second generation of subcultured cells (cells; preincubated in 60 μM for 24 hrs.): cells of second generation were normal
second generation of subcultured cells (cells; preincubated in the labeled culture medium for 24 hrs.): cells of the second generation were normal
k2 (turnover rate) (β-galactosidase): 0.0537 µmol/min/mg
Km (β-galactosidase): 0.316 µM
fluorescence in 3T3 cells (NIH3T3 (lacZ-) cells): not in 3T3 cells
time at which fluorescence intensity in CRE BAG 2 cells reached its highest level (CRE BAG 2 (lacZ+) cells): 6 h
fluorescence inside CRE BAG 2 cells (CRE BAG 2 (lacZ+) cells; after 1 hr. incubation): fluorescence was observed inside CRE BAG 2 cells

CCCCCCCCCCCCCCCC(=O)Nc1ccc2c(c1)C(=O)OC21c2ccc(O[C@@H]3O[C@H](CO)[C@H](O)[C@H](O)[C@H]3O)cc2Oc2cc(O[C@@H]3O[C@H](CO)[C@H](O)[C@H](O)[C@H]3O)ccc21 [C16 FDG]
toxicity effects on labelled cells (cells): no detectible toxicity effects
k2 (turnover rate) (β-galactosidase): 0.273 µmol/min/mg
Km (β-galactosidase): 1.06 µM

CCCCCCCCCCCCCCCCCC(=O)Nc1ccc2c(c1)C(=O)OC21c2ccc(O[C@@H]3O[C@H](CO)[C@H](O)[C@H](O)[C@H]3O)cc2Oc2cc(O[C@@H]3O[C@H](CO)[C@H](O)[C@H](O)[C@H]3O)ccc21 [C18 FDG]
toxicity effects on labelled cells (cells): no detectible toxicity effects
k2 (turnover rate) (β-galactosidase): 8.28 µmol/min/mg
Km (β-galactosidase): 20.8 µM

CCCCCCCCCCCCCCCCCC(=O)Nc1ccc2c(c1)C(=O)OC21c2ccc(O)cc2Oc2cc(O)ccc21 [Example F18, octadecanoyl aminofluorescein]
toxicity to the cells (plant cell populations): non-toxic

CCCCCCCCCCCCCCCCCCOC(=O)c1ccccc1-c1c2ccc(=[N+](CC)CC)cc-2oc2cc(N(CC)CC)ccc12 [Example R18, octadecyl rhodamine B]
toxicity to the cells (plant cell populations): non-toxic

CCCCCCCCCCCC(=O)Nc1ccc2c(c1)C(=O)OC21c2ccc(O[C@@H]3O[C@H](C(=O)O)[C@@H](O)[C@H](O)[C@H]3O)cc2Oc2cc(O[C@@H]3O[C@H](C(=O)O)[C@@H](O)[C@H](O)[C@H]3O)ccc21 [FA910, 5-DODECANOYLAMINOFLUORESCEIN DI-β-D-GLUCOPYRANOSIDURONIC ACID, DI-LITHIUM SALT]
staining of tobacco cells (yellowish-green fluorescence) [1]: Only the GUS gene positive tobacco plant cells were stained

O=c1ccc2nc3ccc(O[C@@H]4O[C@H](CO)[C@H](O)[C@H](O)[C@H]4O)cc3oc-2c1 [resorufin galactoside]
time to detect enzyme activity in a single lacZ+ cell (lacZ+ cell): ≤ 1 h

fluorescein isothiocyanate [FITC]
toxicity to the cells (plant cell populations): non-toxic
toxicity to the cells at high levels (plant cell populations; high levels): toxic at high levels

rhodamine isothiocyanate [RITC]
toxicity to the cells (plant cell populations): non-toxic
toxicity to the cells at high levels (plant cell populations): toxic at high levels
